Assays:
[1] = tested on: colorectal cancer cells HCT116; assay: CD63 immunofluorescence / coimmunostaining (intracellular EV accumulation); format: cell-based, human; conditions: HCT116, 2.5 μmol/L, 48 hours, serine-deficient medium, compared with NC (DMSO)
Method: (§1) Colorectal cancer cells HCT116 and lung cancer cells A549 were transfected with siRNA (siPSAT1) in the same manner as in the item (2) in Example A1, and EV biogenesis after PSAT1 silencing was examined. For the respective silenced transformants, CD63 and PSAT1 were examined by immunofluorescence.
(§2) Further, coimmunostaining of the EV marker CD63 and also an early endosome marker EEA1 or a late endosome marker Rab7 was conducted for the PSAT1-silenced transformants. As a result, no overlap was observed between EEA1 and CD63 in either the PSAT1-silenced transformants or the negative control transformants. […] On this account, the CD63 single-positive area was measured based on the intensity. […] This confirmed that EVs had accumulated in the cells.
(§3) Specifically, the test was performed in the following manner. Colorectal cancer cells HCT116 and lung cancer cells A549 were each seeded in a 6-well plate at 1.5×10^5 cells/well (Day 0), and incubated for 24 hours in a medium (DMEM with 10% FBS, 1×anti-anti medium). After the incubation (Day 1), the above-described medium was removed, and thereafter, a serine-deficient medium and an inhibitor solution were added to the wells. The inhibitor solution was prepared by dissolving NCT-503 in DMSO, and the concentration of the inhibitor per well was set to 2.5 μmol/L. Then, after another 48 hours of incubation (Day 3), the medium in the wells was collected and the cells in the wells were counted. As negative controls (NC), the test was performed in the same manner, except that DMSO was added instead of the inhibitor solution.
(§4) EVs accumulated in the cells were analyzed in the following manner. Specifically, the collected cells were immunostained, the CD63 single-positive area was measured based on the fluorescence intensity, and the fluorescence intensity measured in the area was divided by the number of nuclei to determine the amount of EVs accumulated in each cell. On the other hand, secreted EVs were collected from the collected medium and then subjected to the NTA. In the NTA, the amount of secreted EVs was determined as a relative value calculated assuming that the amount of the secreted EVs in the negative control was 1.

lung cancer cells A549 = assay: as above; format: cell-based, human; conditions: A549, 2.5 μmol/L, 48 hours, serine-deficient medium, compared with NC (DMSO)
Method: as §1, §2, §3, §4

[2] = tested on: normal epithelial cells in the large intestine (HCoEpiC); assay: Amount of secreted EVs per cell by ExoScreen in normal cells; format: cell-based
Method: (§5) EV detection was performed using an AlphaLISA reagent (Perkin Elmer) composed of AlphaScreen streptavidin-coated donor beads (6760002), AlphaLISA unconjugated acceptor beads (6062011), and an AlphaLISA universal buffer (AL001F), a 96-well half-area white plate (6005560, Perkin Elmer), and a detection device EnSpire Alpha 2300 Mutilabel plate reader (Perkin Elmer). Specifically, the EV detection was performed as follows. Each well of the plate was filled with 5 μL of EVs or 10 μL of CM (cell culture supernatant), 10 μL of a 5 nmol/L biotinylated antibody solution prepared using the above-described buffer, and 10 μL of 50 µg/mL AlphaLISA acceptor bead-conjugated antibody. For detection of CD9/CD9 double-positive EVs, a biotinylated anti-human CD9 antibody and an anti-human CD9 antibody conjugated with AlphaLISA acceptor beads were used. For detection of CD9/CD63 double-positive EVs, a biotinylated anti-human CD9 antibody and an anti-human CD63 antibody conjugated with AlphaLISA acceptor beads were used. For detection of CD63/CD63 double-positive EVs, a biotinylated anti-human CD63 antibody and an anti-human CD63 antibody conjugated with AlphaLISA acceptor beads were used. The plate was incubated at 37° C. for 1 hour, and then, 25 μL of 80 μg/mL AlphaScreen streptavidin-coated donor beads were added thereto. The plate was incubated at 37° C. for another 30 minutes in the dark. Next, luminescence in the wells of the plate was measured using the detection device with the excitation wavelength set to 680 nm and the emission detection wavelength set to 615 nm. The antibodies used were both commercially available products, namely, a mouse monoclonal anti-human CD9 (Clone 12A12) and a CD63 antibody (Clone 8A12) (both available from Cosmo Bio).
(§6) The present example examined the effect of NCT-503 on normal cells to provide indirect data showing that NCT-503 reduced EV secretion specific to cancer cells. […] Thereafter, the cell viability was determined and also the amount of secreted EVs was measured by the ExoScreen method.
(§7) Specifically, the test was performed in the following manner. […] Then, the medium in the wells was collected and the cells in the wells were counted. As a control, the same procedures as described above were performed except that DMSO was added instead of the inhibitor solution, and the cells in the wells were counted. Then, the cell viability was calculated assuming that the number of cells in the NCT-free (0 M) medium (i.e., DMSO-containing medium) of the control was a relative value of 1. Also, the amount of secreted EVs was measured by ExoScreen.

[3] = tested on: normal epithelial cells in the lung (HBEC); assay: as above; format: cell-based
Method: as §5, §6, §7

Question: With `Cc1cc(C)nc(NC(=S)N2CCN(Cc3ccc(C(F)(F)F)cc3)CC2)c1` [NCT-503] as the compound, how does the “amount of EVs accumulated in each cell (CD63 single-positive fluorescence intensity / number of nuclei)” value [1] read?
Answer: larger

Question: What about the “amount of EVs accumulated in each cell (CD63 single-positive fluorescence intensity / number of nuclei)” value (lung cancer cells A549) of the same compound?
Answer: larger

Question: And the “difference in amount of secreted EVs, NCT-503-containing medium vs DMSO-containing medium without NCT” value ([2]; normal epithelial cells in the large intestine, 0.15625 to 2.5 μmol/L)?
Answer: almost no difference

Question: What about the “relative value of the amount of secreted EVs with respect to DMSO-containing medium without NCT (0 µM)” value ([2]; normal epithelium cells in the large intestine, NCT-503 2.5 mol/L (so in the source), 48 hours, ExoScreen) of the same compound?
Answer: 0.98

Question: What about the “difference in amount of secreted EVs, NCT-503-containing medium vs DMSO-containing medium without NCT” value ([3]; normal epithelial cells in the lung, 0.15625 to 2.5 μmol/L) of the same compound?
Answer: almost no difference

Question: And the “relative value of the amount of secreted EVs with respect to DMSO-containing medium without NCT (0 µM)” value ([3]; normal epithelium cells in the lung, NCT-503 2.5 mol/L (so in the source), 48 hours, ExoScreen)?
Answer: 1.17

From patent US20260218197A1, “EXTRACELLULAR VESICLE SECRETION REDUCING AGENT FOR REDUCING EXTRACELLULAR VESICLE SECRETION, AND USE OF THE SAME” (THEORIA SCIENCE INC., priority 2020, published 2026)
